The text below walks through data of US6300470A, “Antibiotic cryptdin peptides and methods of their use” (priority 1999, dated 2001).

Common to all, as to type: cell-based
Test [1] relates to wild type S. typhimurium (ATCC 10428). Nature of the test: agar radial diffusion assay, wild type S. typhimurium. The following applies: HEPES or PIPES buffer; 100 μg/ml or 300 μg/ml. Here is the method: (§1) FIGS. 7.A. and 7.B. depict the antimicrobial activity of mouse cryptain 1 (SEQ ID NO: 6). Samples of purified natural mouse cryptdin 1 (FIG. 7.A.) or rabbit NP-1 (FIG. 7.B.) were dissolved in 0.01% acetic acid and pipetted into wells produced in a 0.6, agarose/0.3% tryptone plate containing 1×10^6 log phase bacterial cells. After incubation at 37° C. for 18 hr, antimicrobial activity was evaluated by measuring the diameters of the clear zones. Closed circles denote wild type S. typhimurium; open circles denote the phoP^- mutant. […]
(§2) Antibacterial activity was measured in an agar radial diffusion assay (Lehrer et al., supra, 1991b) using wild type S. typhimurium (ATCC 10428) or an isogenic phoP mutant of S. typhimurium (strain CS015 phoP102::Tn10d-Cam, Miller et al., supra, 1989). […]
(§3) Purified cryptdin peptides were dissolved at 3 to 300 μg/ml in 0.010% acetic acid and activity was examined against E. coli ML35 (ATCC). […] Antibacterial activity was determined by measuring the diameter of learing around each well and plotted as a function of peptide concentration.

The test system of test [2] is isogenic phoP mutant of S. typhimurium (strain CS015 phoP102::Tn10d-Cam). Nature of the test: agar radial diffusion assay, phoP mutant S. typhimurium. The following applies: HEPES or PIPES buffer; 100 μg/ml or 300 μg/ml. The protocol: as §1, §2, §3
Test [3] has as its system E. coli ML35. The test is described as follows: radial diffusion assay, E. coli ML35. The note with it: 10 mM PIPES. The protocol: Purified cryptdin peptides were dissolved at 3 to 300 μg/ml in 0.010% acetic acid and activity was examined against E. coli ML35 (ATCC). In the radial diffusion assay, […] peptide solution was transferred into wells formed in plates of 1% agarose buffered with 10 mM PIPES (pH 7.4) and containing 1×10^6 log-phase bacteria grown in trypticase soy broth. After 3 hr at 37° C., the plates were overlayed with 0.8w agarose containing 2× trypticase soy broth and incubated overnight. The antibacterial activities of cryptdin peptides was compared with the activity of rabbit neutrophil defensin NP-1, which was purified from peritoneal exudates as described by Selsted et al. (J. Biol. Chem. 260:4579-4584 (1985), which is incorporated herein by reference). Antibacterial activity was determined by measuring the diameter of learing around each well and plotted as a function of peptide concentration.

Test [4] concerns S. aureus. The test is described as follows: radial diffusion assay, S. aureus growth inhibition. The note with it: higher concentrations (100 μg/ml and 300 μg/ml).
Test [5] concerns E. coli ML35 cells. Nature of the test: bactericidal assay in suspension, E. coli. The protocol: (§4) In order to determine whether the effect of the cryptdin peptides against E. coli is bacteriostatic or bacteriocidal, bacterial killing was quantitated as a function of time. Bactericidal asgayg were performed by incubating 1-2×10^6 log-phase bacteria in 10 mM PIPES containing 10 μg peptide/ml. After incubation for 15 or 30 min at 37° C., aliquots were removed, serially diluted and plated on trypticase soy agar. Bactericidal activity was quantitated by counting colonies after overnight incubation at 37° C.
(§5) The bactericidal activity of rat cryptdin 1 also was examined. E. coli ML35 cells, S. areus 502A cells or mutant or wild type S. typhimuruim cells were incubated with various concentrations of rat cryptdin 1 or rabbit NP-1.

In test [6] the test system is S. areus 502A cells. Nature of the test: bactericidal assay, S. aureus 502A. The note with it: 10 μg/ml. Here is the method: as §4, §5
Test [7] deals with mutant S. typhimuruim cells. The test is described as follows: bactericidal assay, mutant S. typhimurium. The protocol:
as §4, §5

The test system of test [8] is wild type S. typhimuruim cells. The test is described as follows: bactericidal assay, wild type S. typhimurium. The note with it: 10 μg/ml. The protocol: as §4, §5

Consider “GLLCYCRKGHCKRGERVRGTCGIRFLYCCPR [cryptdin 4]”, for which the “inhibiting growth of wild type S. typhimurium compared with NP-1” value in test [1] is recorded as “more effective than the same concentration of NP-1”. In test [2], the “preventing growth of mutant S. typhimurium compared with NP-1” value is on record as “more effective than the same concentration of NP-1”. In test [3] (compared at 100 μg/ml and 300 μg/ml), the “activity against E. coli ML35 relative to NP-1” value is “at least 50 ×”. Further, in test [4], the “inhibiting growth of S. aureus compared with same concentration of NP-1” value is “more effective than the same concentration of NP-1”.

Consider “LKQCHCRKFCRPYEKAEGSCRPGLFIKRKICCIQQWTPG [rat cryptdin 1]”, for which, in test [5] (10 μg/ml), the “E. coli cells killed” value is recorded as “greater than 99%”. The “killing of E. coli cells, rat cryptdin 1 compared with NP-1” value in test [5] (various concentrations) is given as “more effective than NP-1”. Also, the “S. aureus cells killed” value in test [6] is on record as “about 90%”. Besides, the “mutant S. typhimurium cells killed” value in test [7] (10 μg/ml) is reported as “greater than 99%”. The “killing of mutant S. typhimurium cells, rat cryptdin 1 compared with NP-1” value in test [7] (various concentrations) is “more effective than NP-1”. The “killing of wild type S. typhimurium” value in test [8] was “relatively ineffective”.

“LSKKLICYCRIRGCKRRERVFGTCRNLFLTFVFCC [cryptdin 5]”: the “inhibiting growth of wild type S. typhimurium compared with NP-1” value in test [1] is “more effective than the same concentration of NP-1”. Also, in test [2], the “preventing growth of mutant S. typhimurium compared with NP-1” value is reported as “more effective than the same concentration of NP-1”. The “activity against E. coli ML35 relative to rabbit NP-1” value in test [3] (at concentration above 100 μg/ml) is on record as “approximately 5 ×”. Also, in test [4], the “inhibiting growth of S. aureus compared with same concentration of NP-1” value is “more effective than the same concentration of NP-1”.
